Test [1] has as its target D. immitis iPGM (Dirofilaria immitis, UniProt F4ZE01). Kind of test: biochemical.
In test [2] the target is E. coli iPGM (Escherichia coli, UniProt P37689). Kind of test: biochemical. The note with it: […].

What is called IC50 is the concentration that inhibits the measured activity by half. High values mean a need for much substance, low ones inhibition by little substance.

Bridge positions count the residues as written; N and C are the ends. Square brackets hold non-standard residues; d marks the D form. Peptide text beside a SMILES is read from it. Phe(4-F) = N[C@@H](Cc1ccc(F)cc1)C(=O)O

On to `CC(C)C[C@H](NC(=O)[C@H](Cc1ccc(F)cc1)NC(=O)[C@@H]1CSCC(=O)N[C@H](Cc2ccc(O)cc2)C(=O)N[C@@H](CC(=O)O)C(=O)N[C@@H](Cc2ccc(O)cc2)C(=O)N2CCC[C@H]2C(=O)NCC(=O)N[C@@H](CC(=O)O)C(=O)N[C@@H](Cc2ccc(O)cc2)C(=O)N1)C(=O)N[C@@H](Cc1ccc(O)cc1)C(=O)NCC(=O)N[C@H](C(=O)N[C@@H](CS)C(N)=O)[C@@H](C)O` [Ce-2 Y9(4F)F] ({CH2CO}-[dY]DYPGDYC[Phe(4-F)]LYGTC-NH2; thioether N-8), for which the IC50 worked out at 2.8e-09 M in test [1] (Di iPGM Ave IC50 (M)) and 6930 nM in test [2].
Regarding `CC(C)C[C@H](NC(=O)[C@H](Cc1ccccc1)NC(=O)[C@@H]1CSCC(=O)N[C@H](Cc2ccc(O)cc2)C(=O)N[C@@H](CC(=O)O)C(=O)N[C@@H](Cc2ccc(O)cc2)C(=O)N2CCC[C@H]2C(=O)NCC(=O)N[C@@H](CC(=O)O)C(=O)N[C@@H](Cc2ccc(O)cc2)C(=O)N1)C(=O)N[C@@H](Cc1ccc(O)cc1)C(=O)NCC(=O)N[C@H](C(=O)N[C@@H](CS)C(N)=O)[C@@H](C)O` [Ce-2 Y9F] ({CH2CO}-[dY]DYPGDYCFLYGTC-NH2; thioether N-8), the concentration for half-maximal inhibition (IC50) stood at 2.69e-09 M in test [1] (Di iPGM Ave IC50 (M)), 2.79e-09 M in test [1] (IC50 (M)) and 815 nM in test [2].
With `CC(C)C[C@H](NC(=O)[C@H](Cc1ccc(O)cc1)NC(=O)[C@@H]1CSCC(=O)N[C@H](Cc2ccc(O)cc2)C(=O)N[C@@H](CC(=O)O)C(=O)N[C@@H](Cc2ccc(O)cc2)C(=O)N2CCC[C@H]2C(=O)NCC(=O)N[C@@H](CC(=O)O)C(=O)N[C@@H](Cc2ccc(O)cc2)C(=O)N1)C(=O)N[C@@H](Cc1ccc(O)cc1)C(=O)NCCCC(=O)N[C@@H](CS)C(N)=O` [Ce-2 [12-13]GABA], the IC50 in test [1] (Di iPGM Ave IC50 (M)) turned out to be 2.85e-09 M; in test [2], 2980 nM.
Taken in the same sequence, the figures for `CC(C)C[C@H](NC(=O)[C@H](Cc1ccc(O)cc1)NC(=O)[C@@H]1CSCC(=O)N[C@H](Cc2ccc(O)cc2)C(=O)N[C@@H](CCC(N)=O)C(=O)N[C@@H](Cc2ccc(O)cc2)C(=O)N2CCC[C@H]2C(=O)NCC(=O)N[C@@H](CC(=O)O)C(=O)N[C@@H](Cc2ccc(O)cc2)C(=O)N1)C(=O)N[C@@H](Cc1ccc(O)cc1)C(N)=O` [Ce-2d D2Q] were 3.31e-07 M and 8040 nM.
As for `CC[C@H](C)[C@@H]1NC(=O)[C@H](Cc2ccc(O)cc2)NC(=O)[C@H](CC(=O)O)NC(=O)[C@@H](Cc2ccc(O)cc2)NC(=O)CSC[C@@H](C(=O)N[C@@H](Cc2ccc(O)cc2)C(=O)N[C@@H](CC(C)C)C(=O)N[C@@H](Cc2ccc(O)cc2)C(N)=O)NC(=O)[C@H](Cc2ccc(O)cc2)NC(=O)[C@H](CC(=O)O)NC(=O)CNC1=O` [Ce-2d P4I], the figures for the IC50 in test [1] (Di iPGM Ave IC50 (M)) and in test [2] were 2.21e-07 M and 21900 nM, respectively.
`COc1ccc(C[C@@H]2NC(=O)CSC[C@@H](C(=O)N[C@@H](Cc3ccc(O)cc3)C(=O)N[C@@H](CC(C)C)C(=O)N[C@@H](Cc3ccc(O)cc3)C(N)=O)NC(=O)[C@H](Cc3ccc(O)cc3)NC(=O)[C@H](CC(=O)O)NC(=O)CNC(=O)[C@@H]3CCCN3C(=O)[C@H](Cc3ccc(O)cc3)NC(=O)[C@H](CC(=O)O)NC2=O)cc1` [Ce-2d Y1(4OMe)F]: the half-maximal inhibitory concentration (IC50) in test [1] (Di iPGM Ave IC50 (M)) was determined as 1.87e-08 M; in test [2] it was 20000 nM.
Turning to `COc1ccc(C[C@H]2NC(=O)CSC[C@@H](C(=O)N[C@@H](Cc3ccc(O)cc3)C(=O)N[C@@H](CC(C)C)C(=O)N[C@@H](Cc3ccc(O)cc3)C(N)=O)NC(=O)[C@H](Cc3ccc(O)cc3)NC(=O)[C@H](CC(=O)O)NC(=O)CNC(=O)[C@@H]3CCCN3C(=O)[C@H](Cc3ccc(O)cc3)NC(=O)[C@H](CC(=O)O)NC2=O)cc1` [Ce-2d Y1D(4OMe)F], the half-inhibitory concentration (IC50) came out at 6.18e-08 M in test [1] (Di iPGM Ave IC50 (M)) and 18700 nM in test [2].
With `COc1ccc(C[C@H](NC(=O)[C@H](CC(C)C)NC(=O)[C@H](Cc2ccc(O)cc2)NC(=O)[C@@H]2CSCC(=O)N[C@H](Cc3ccc(O)cc3)C(=O)N[C@@H](CC(=O)O)C(=O)N[C@@H](Cc3ccc(O)cc3)C(=O)N3CCC[C@H]3C(=O)NCC(=O)N[C@@H](CC(=O)O)C(=O)N[C@@H](Cc3ccc(O)cc3)C(=O)N2)C(N)=O)cc1` [Ce-2d Y11(4OMe)F], the IC50 in test [1] (Di iPGM Ave IC50 (M)) worked out at 6.05e-08 M; in test [2] it was 12800 nM.

The values are drawn from PMC8113725, “Structure–activity relationship of ipglycermide binding to phosphoglycerate mutases” (The Journal of Biological Chemistry, 2021).
